US10676443B2, “Method for producing (4S)-4-[4-cyano-2-(methylsulfonyl)phenyl]-3,6-dimethyl-2-oxo-1-[3-(trifluoromethyl)phenyl]-1,2,3,4-tetrahydro pyrimidine-5-carbonitrile” (pH Pharma Co., Ltd., priority 2015, dated 2020)

Assay: stability of crystal form (A) on storage, even at high humidity
Type: physicochemical
Settings: solid crystal form (A)

stability properties (even at high humidity): very good | storage time with no loss of stability (storage): more than 3 years
SMILES: CC1=C(C#N)[C@@H](c2ccc(C#N)cc2S(C)(=O)=O)N(C)C(=O)N1c1cccc(C(F)(F)F)c1 [crystal form (A), (S)-4-[4-cyano-2-(methylsulfonyl)phenyl]-3,6-dimethyl-2-oxo-1-[3-(trifluoromethyl)phenyl]-1,2,3,4-tetrahydropyrimidine-5-carbonitrile]
